Data published in patent publication US6586604B2, “Tricyclic amine derivatives” (Daiichi Pharmaceutical Co., Ltd., priority 1996, dated 2003).
≈ marks a conversion by molar mass, not a printed value.

Tests used:
[1] = system: S. pneumoniae, J24; experiment: Antimicrobial activity (MIC), standard method of the Japan Chemotherapeutic Society; type: cell-based; details: for MIC: Streptococcus pneumoniae, read-out: minimum inhibitory concentration (MIC)
Description: (§1) The antimicrobial activity of the compounds according to the present invention was determined in accordance with the standard method specified by the Japan Chemotherapeutic Society.

[2] = system: Str. Faecalis, ATCC-19433; experiment: as above; type: cell-based; details: for MIC: Enterococcus faecalis, ATCC19433, read-out: minimum inhibitory concentration (MIC)
Description: as §1

[3] = system: S. flexneli, 2A 5503; experiment: as above; type: cell-based; details: for minimum inhibitory concentration (MIC): S. flexneli, 2A 5503; for MIC: read-out: minimum inhibitory concentration (MIC)
Description: as §1

[4] = system: E. coil, NIHJ; experiment: as above; type: cell-based; details: for MIC: read-out: minimum inhibitory concentration (MIC)
Description: as §1

[5] = system: Pr. Mirabilis, IFO-3849; experiment: as above; type: cell-based; details: for MIC: Proteus mirabilis, IFO3849, read-out: minimum inhibitory concentration (MIC)
Description: as §1

[6] = system: S. aureaus, 209P; experiment: as above; type: cell-based; details: for MIC: read-out: minimum inhibitory concentration (MIC)
Description: as §1

[7] = system: Str. Pyogenes, G-36; experiment: as above; type: cell-based; details: for MIC: Streptococcus pyogenes, read-out: minimum inhibitory concentration (MIC)
Description: as §1

[8] = system: Ps. Maltophilia, 11D-1275; experiment: as above; type: cell-based; details: for MIC: Stenotrophomonas maltophilia, read-out: minimum inhibitory concentration (MIC)
Description: as §1

[9] = system: Pr. vulgaris, 08601; experiment: as above; type: cell-based; details: for MIC: Proteus vulgaris, read-out: minimum inhibitory concentration (MIC)
Description: as §1

[10] = system: Ps. Aeruginosa, 32104; experiment: as above; type: cell-based; details: for MIC: Pseudomonas aeruginosa, read-out: minimum inhibitory concentration (MIC)
Description: as §1

[11] = system: S. epidermidis, 56500; experiment: as above; type: cell-based; details: for MIC: Staphylococcus epidermidis, read-out: minimum inhibitory concentration (MIC)
Description: as §1

[12] = system: Ser. Marcescens, 10100; experiment: as above; type: cell-based; details: for MIC: Serratia marcescens, read-out: minimum inhibitory concentration (MIC)
Description: as §1

[13] = system: S. aureus, 870307; experiment: as above; type: cell-based; details: for MIC: Staphylococcus aureus, read-out: minimum inhibitory concentration (MIC)
Description: as §1

[14] = system: Ps. Aeruginosa, 32121; experiment: as above; type: cell-based; details: for MIC: Pseudomonas aeruginosa, read-out: minimum inhibitory concentration (MIC)
Description: as §1

Compound | minimum inhibitory concentration (MIC) [1] | minimum inhibitory concentration (MIC) [2] [µg/mL] | minimum inhibitory concentration (MIC) [3] | minimum inhibitory concentration (MIC) [4] | minimum inhibitory concentration (MIC) [5] [µg/mL] | minimum inhibitory concentration (MIC) [6] | minimum inhibitory concentration (MIC) [7] | minimum inhibitory concentration (MIC) [8] [µg/mL] | minimum inhibitory concentration (MIC) [9] | minimum inhibitory concentration (MIC) [10] [µg/mL] | minimum inhibitory concentration (MIC) [11] | minimum inhibitory concentration (MIC) [12] [µg/mL] | minimum inhibitory concentration (MIC) [13] [µg/mL] | minimum inhibitory concentration (MIC) [14] [µg/mL] | MIC [1] [µg/mL] | MIC [2] [µg/mL] | MIC [3] [µg/mL] | MIC [4] [µg/mL] | MIC [5] [µg/mL] | MIC [6] [µg/mL] | other results
Cc1c(N2CC3CC4CC4(N)C3C2)c(F)c(N)c2c(=O)c(C(=O)O)cn([C@@H]3C[C@@H]3F)c12 (stereo partly drawn) [Example 6, 5-Amino-7-{1-amino-4-azatricyclo[6.1.0.0^2,6]nonan-4-yl}-6-fluoro-1-[2-(S)-fluoro-1-(R)-cyclopropyl]-1,4-dihydro-8-methyl-4-oxoquinoline-4-carboxylic Acid] | ≦0.003 μg/ml | 0.013 (≈ 0.0302 µM) | ≦0.003 μg/ml | ≦0.003 μg/ml | 0.025 (≈ 0.0581 µM) | ≦0.003 μg/ml | ≦0.003 μg/ml | 0.025 (≈ 0.0581 µM) | 0.025 µg/mL (≈ 0.0581 µM) | 0.10 (≈ 0.232 µM) | ≦0.003 μg/ml | 0.05 (≈ 0.116 µM) | 0.05 (≈ 0.116 µM) | 0.025 (≈ 0.0581 µM) | – | – | – | – | – | – | –
COc1c(N2CC3CC4CC4(N)C3C2)c(F)cc2c(=O)c(C(=O)O)cn([C@@H]3C[C@@H]3F)c12 (stereo partly drawn) [Example 5, 7-{1-Amino-4-azatricyclo[6.1.0.0^2,6]nonan-4-yl}-6-fluoro-1-[2-(S)-fluoro-1-(R)-cyclopropyl]-1,4-dihydro-8-methoxy-4-oxoquinoline-3-carboxylic Acid] | – | – | – | – | – | – | – | – | – | – | – | – | – | – | ≤ 0.003 | 0.025 (≈ 0.0579 µM) | ≤ 0.003 | ≤ 0.003 | ≤ 0.003 | ≤ 0.003 | MIC [7]: ≤ 0.003 µg/mL; MIC [8]: 0.05 µg/mL (≈ 0.116 µM); MIC [9]: 0.006 µg/mL (≈ 0.0139 µM); MIC [10]: 0.1 µg/mL (≈ 0.232 µM); MIC [11]: ≤ 0.003 µg/mL; MIC [12]: 0.05 µg/mL (≈ 0.116 µM); MIC [13]: 0.013 µg/mL (≈ 0.0301 µM); MIC [14]: 0.05 µg/mL (≈ 0.116 µM); melting point: 146 to 159 °C (dec.)
Cc1c(N2CC3CC4CC4(N)C3C2)c(F)cc2c(=O)c(C(=O)O)cn([C@@H]3C[C@@H]3F)c12 (stereo partly drawn) [Example 7, 7-(1-Amino-4-azabicyclo[6.1.0.0^2,6]nonan-4-yl)-6-fluoro-1-[2-(S)-fluoro-1-(R)-cyclopropyl]-8-methyl-1,4-dihydro-4-oxoquinoline-3-carboxylic Acid] | ≦0.003 μg/ml | 0.013 (≈ 0.0313 µM) | ≦0.003 μg/ml | ≦0.003 μg/ml | 0.013 (≈ 0.0313 µM) | ≦0.003 μg/ml | ≦0.003 μg/ml | 0.025 (≈ 0.0602 µM) | ≦0.003 μg/ml | 0.05 (≈ 0.12 µM) | ≦0.003 μg/ml | 0.025 (≈ 0.0602 µM) | 0.013 (≈ 0.0313 µM) | 0.025 (≈ 0.0602 µM) | – | – | – | – | – | – | –
Nc1c(F)c(N2CC3CC4CC4(N)C3C2)c(F)c2c1c(=O)c(C(=O)O)cn2C1CC1 (stereo not drawn) [Example 1, 5-Amino-7-(1-amino-4-azatricyclo[6.1.0.0^2,6]-nonan-4-yl)-1-cyclopropyl-6,8-difluoro-1,4-dihydro-4-oxoquinoline-3-carboxylic Acid] | – | – | – | – | – | – | – | – | – | – | – | – | – | – | ≤ 0.003 | 0.025 (≈ 0.06 µM) | ≤ 0.003 | ≤ 0.003 | 0.05 (≈ 0.12 µM) | ≤ 0.003 | MIC [7]: 0.006 µg/mL (≈ 0.0144 µM); MIC [8]: 0.05 µg/mL (≈ 0.12 µM); MIC [9]: 0.1 µg/mL (≈ 0.24 µM); MIC [10]: 0.2 µg/mL (≈ 0.48 µM); MIC [11]: 0.006 µg/mL (≈ 0.0144 µM); MIC [12]: 0.1 µg/mL (≈ 0.24 µM); MIC [13]: 0.1 µg/mL (≈ 0.24 µM); MIC [14]: 0.2 µg/mL (≈ 0.48 µM); melting point: 197 to 202 °C (dec.)
C[C@H]1COc2c(N3C[C@H]4CC5C[C@]5(N)[C@H]4C3)c(F)cc3c(=O)c(C(=O)O)cn1c23 (stereo partly drawn) [Example 2, 10-{(1R,2R,6S)-1-Amino-4-azatricyclo[6.1.0.0^2,6]nonan-4-yl}-9-fluoro-2,3-dihydro-3-(S)-methyl-7-oxo-7H-pyrido[1.2.3-de][1,4]benzoxazine-6-carboxylic Acid] | 0.013 µg/mL (≈ 0.0325 µM) | 0.05 (≈ 0.125 µM) | 0.006 µg/mL (≈ 0.015 µM) | ≦0.003 μg/ml | 0.10 (≈ 0.25 µM) | 0.006 µg/mL (≈ 0.015 µM) | 0.013 µg/mL (≈ 0.0325 µM) | 0.20 (≈ 0.501 µM) | 0.025 µg/mL (≈ 0.0626 µM) | 0.20 (≈ 0.501 µM) | 0.025 µg/mL (≈ 0.0626 µM) | 0.05 (≈ 0.125 µM) | 0.20 (≈ 0.501 µM) | 0.05 (≈ 0.125 µM) | – | – | – | – | – | – | –
